From patent US20190231771A1, “METHODS FOR TREATMENT AND PREVENTION OF OPIOID INDUCED CONSTIPATION USING ORAL COMPOSITIONS OF METHYLNALTREXONE” (Salix Pharmaceuticals, Ltd., priority 2011, published 2019)

Columns and labels:
Type in all cases: in vivo, human
[1] = Study A: single and multiple dose pharmacokinetics after subcutaneous 12 mg methylnaltrexone; details: 12 mg SC Injection; for t1/2: day not given, harmonic mean; for R (SC), accumulation factor: AUC0-24 on Day 7/AUC0-24 on Day 1
Protocol: (§1) Presented herein is a clinical pharmacokinetics study, Study C, as well as Studies A and B. Study A investigated the single and multiple dose pharmacokinetics of methylnaltrexone (MNTX) and its metabolites (M2: methylnaltrexone sulfate; M4: 6α-methylnaltrexol; and M5: 6β-methylnaltrexol) following the subcutaneous administration of 12 mg methylnaltrexone. In Study B, the single and multiple dose pharmacokinetics of methylnaltrexone (MNTX) and its metabolites (M2, M4, and M5) were examined following a 20-minute short intravenous infusion of 24 mg of methylnaltrexone (MNTX).
(§2) Pharmacokinetic parameters included Cmax, AUCt, AUCinf, tmax, t1/2, % Re24, accumulation factor (R) as defined below and metabolite/parent drug ratio.
(§3) R=Accumulation Factor(based on AUC0-24(ng·h/mL):Day 7 AUC AUC0-24/Day 1 AUC0-24
(§4) Metabolite-Parent Drug ratio(based on ng·h/mL)(%)=100*(Metabolite AUC24/MNTX AUC24)
(§5) Note: AUCinf was used in place of AUC AUC0-24 for R and Metabolite-Parent Drug ratio computations following IV administration.

[2] = Study C: single and multiple dose pharmacokinetics of MNTX and metabolites, MNTX 450 mg PO x 7 days; details: for t1/2 / AUC0-24 / AUCinf / Cmax / Tmax / Metabolite/MNTX Ratio / R (PO), accumulation factor: 450 mg Tablets oral; for Metabolite/MNTX Ratio: 100*(Metabolite AUC24/MNTX AUC24); for R (PO), accumulation factor: AUC0-24 on Day 7/AUC0-24 on Day 1; for metabolite to MNTX ratios following oral administration: day and AUC basis not stated
Protocol: as §1
In addition, the urinary elimination of MNTX was characterized.
as §2, §3, §4, §5

[3] = Study B: single and multiple dose pharmacokinetics after 20-minute intravenous infusion of 24 mg methylnaltrexone; details: 24 mg IV infusion; for t1/2 / AUC0-6: day not given; for AUC0-6: mean; for Metabolite ÷ MNTX Ratio / R (IV), accumulation factor: AUCinf used
Protocol: as §1, §2, §3, §4, §5

## methylnaltrexone sulfate [M2]
[1]; Day 1
  Metabolite/MNTX Ratio: 28.71%
[1]; Day 1, mean
  AUC0-24: 61.34 ng·h/mL
  AUCinf: 71.9 ng·h/mL
  Cmax: 6.34 ng/mL
[1]; Day 1, median
  Tmax: 4.00 h
[1]; Day 7
  Metabolite/MNTX Ratio: 29.30%
[1]; Day 7, mean
  AUC0-24: 66.3 ng·h/mL
  AUCinf: 66.3 ng·h/mL
  Cmax: 5.70 ng/mL
[1]; Day 7, median
  Tmax: 4.00 h
[1]
  t1/2: 5.57 h
  R (SC), accumulation factor: 1.13
[2]; Day 1, harmonic mean
  t1/2: 7.19 h
[2]; Day 1, mean
  AUC0-24: 188.63 ng·h/mL
  AUCinf: 216.89 ng·h/mL
  Cmax: 17.15 ng/mL
[2]; Day 1, median
  Tmax: 4.02 h
[2]; Day 1
  Metabolite/MNTX Ratio: 72.69%
[2]; Day 7, harmonic mean
  t1/2: 13.87 h
[2]; Day 7, mean
  AUC0-24: 243.72 ng·h/mL
  AUCinf: 320.51 ng·h/mL
  Cmax: 21.00 ng/mL
[2]; Day 7, median
  Tmax: 4.02 h
[2]; Day 7
  Metabolite/MNTX Ratio: 79.11%
[2]
  R (PO), accumulation factor: 1.30
  metabolite to MNTX ratios following oral administration: 81.0%
[3]; Day 1, mean
  AUCinf: 162 ng·h/mL
  Cmax: 16.6 ng/mL
[3]; Day 7, mean
  AUCinf: 176 ng·h/mL
  Cmax: 37.70 ng/mL
[3]
  t1/2: 5.70 h
  AUC0-6: 72.3 ng·h/mL
  Metabolite ÷ MNTX Ratio: 46.60%
  R (IV), accumulation factor: 2.61

## C[N@+]1(CC2CC2)CC[C@]23c4c5ccc(O)c4O[C@H]2[C@@H](O)CC[C@@]3(O)[C@H]1C5 [M4, 6α-methylnaltrexol]
[1]; Day 1
  Metabolite/MNTX Ratio: 15.81%
[1]; Day 1, mean
  AUC0-24: 34.66 ng·h/mL
  AUCinf: 38.3 ng·h/mL
  Cmax: 4.64 ng/mL
[1]; Day 1, median
  Tmax: 1.0 h
[1]; Day 7
  Metabolite/MNTX Ratio: 18.75%
[1]; Day 7, mean
  AUC0-24: 41.86 ng·h/mL
  AUCinf: 41.9 ng·h/mL
  Cmax: 4.33 ng/mL
[1]; Day 7, median
  Tmax: 1.0 h
[1]
  t1/2: 7.59 h
  R (SC), accumulation factor: 1.25
[2]; Day 1, harmonic mean
  t1/2: 17.48 h
[2]; Day 1, mean
  AUC0-24: 79.73 ng·h/mL
  AUCinf: 124.23 ng·h/mL
  Cmax: 9.01 ng/mL
[2]; Day 1, median
  Tmax: 2.0003 h
[2]; Day 1
  Metabolite/MNTX Ratio: 29.70%
[2]; Day 7, harmonic mean
  t1/2: 31.85 h
[2]; Day 7, mean
  AUC0-24: 119.61 ng·h/mL
  AUCinf: 221.13 ng·h/mL
  Cmax: 10.77 ng/mL
[2]; Day 7, median
  Tmax: 2.0007 h
[2]; Day 7
  Metabolite/MNTX Ratio: 38.50%
[2]
  R (PO), accumulation factor: 1.62
  metabolite to MNTX ratios following oral administration: 54.21%
[3]; Day 1, mean
  AUCinf: 61.30 ng·h/mL
  Cmax: 11.0 ng/mL
[3]; Day 7, mean
  AUCinf: 54.0 ng·h/mL
  Cmax: 18.10 ng/mL
[3]
  t1/2: 12.28 h
  AUC0-6: 28.8 ng·h/mL
  Metabolite ÷ MNTX Ratio: 14.90%
  R (IV), accumulation factor: 2.08

## C[N@+]1(CC2CC2)CC[C@]23c4c5ccc(O)c4O[C@H]2[C@H](O)CC[C@@]3(O)[C@H]1C5 [M5, 6β-methylnaltrexol]
[1]; Day 1
  Metabolite/MNTX Ratio: 6.58%
[1]; Day 1, mean
  AUC0-24: 14.41 ng·h/mL
  AUCinf: 18.5 ng·h/mL
  Cmax: 1.17 ng/mL
[1]; Day 1, median
  Tmax: 2.0 h
[1]; Day 7
  Metabolite/MNTX Ratio: 8.72%
[1]; Day 7, mean
  AUC0-24: 19.51 ng·h/mL
  AUCinf: 19.5 ng·h/mL
  Cmax: 1.42 ng/mL
[1]; Day 7, median
  Tmax: 2.0 h
[1]
  t1/2: 8.13 h
  R (SC), accumulation factor: 1.42
[2]; Day 1, harmonic mean
  t1/2: 18.40 h
[2]; Day 1, mean
  AUC0-24: 40.84 ng·h/mL
  AUCinf: 73.61 ng·h/mL
  Cmax: 3.48 ng/mL
[2]; Day 1, median
  Tmax: 3.13 h
[2]; Day 1
  Metabolite/MNTX Ratio: 15.10%
[2]; Day 7, harmonic mean
  t1/2: 28.65 h
[2]; Day 7, mean
  AUC0-24: 66.33 ng·h/mL
  AUCinf: 120.87 ng·h/mL
  Cmax: 4.89 ng/mL
[2]; Day 7, median
  Tmax: 2.69 h
[2]; Day 7
  Metabolite/MNTX Ratio: 21.41%
[2]
  R (PO), accumulation factor: 1.76
  metabolite to MNTX ratios following oral administration: 29.78%
[3]; Day 1, mean
  AUCinf: 35.10 ng·h/mL
  Cmax: 3.44 ng/mL
[3]; Day 7, mean
  AUCinf: 30.0 ng·h/mL
  Cmax: 8.71 ng/mL
[3]
  t1/2: 12.3 h
  AUC0-6: 12.3 ng·h/mL
  Metabolite ÷ MNTX Ratio: 8.69%
  R (IV), accumulation factor: 2.91
